# In patent US8129356B2, “Bmx mediated signal transduction in irradiated vascular endothelium” (Vanderbilt University, priority 2007, dated 2012):
# Entries after “also recorded” stand apart in the source; their conditions may differ.
# Columns and labels:
# HUVEC [1] = assay: In vitro studies disclosed herein, comparison of Tec family inhibitors; assay type: cell-based, human
# [2] = system: LLC hind limb tumor blood vessels; assay: Tumor immunohistochemistry (anti-CD34) in hind limb xenograft; assay type: in vivo, C57BL/6 mice; details: 50 mg/kg i.p. daily, 45 minutes before 3 Gy, five treatments
# Procedure: Tumor immunohistochemistry. LLC's were subcutaneously injected into the hind limb of C57BL/6 mice to form xenografts. When tumors grew to 200 mm^3, (approximately 7 days) the mice were treated with five consecutive daily treatments of i.p. LFM-A13 followed 45 minutes later by 3 Gy irradiation using an 80 kVp superficial x-ray generator. Twelve hours following the last radiation treatment, mice were sacrificed and tumors were harvested, fixed in paraffin, and sectioned by the Vanderbilt University Immunohistochemistry Core Facility as described previously (see Cuneo et al., 2007). Immunostaining was with goat anti-CD34 (Santa Cruz Biotechnology) and microvascular photos were analyzed using IMAGE-PRO® software with pixel number quantified.
# HUVEC [3] = assay: Clonogenic survival assay in HUVEC; assay type: cell-based, human; details: 30 μM
# Procedure: Clonogenic survival. LLC's or passage 3-6 HUVECs were grown to 70-80% confluency. Cells were washed with 1×PBS, trypsin suspended, and were counted and adjusted to specific densities for each condition. The cells were plated on tissue culture plates and allowed to attach for 4 hours. […] Media was changed after irradiation. 10-14 days after irradiation, the plates were fixed with 70% ethanol and stained with 1% methylene blue. Colonies were then counted using a dissection microscopy with positive colonies containing at least 50 cells. Surviving fraction (SF) was calculated by the equation (number of colonies formed/number of cells plated)/(number of colonies for sham irradiated group/number of cells plated). Dose enhancing ratios were calculated by dividing the dose (Gy) for radiation alone by the dose for radiation plus treatment (normalized for plating efficiency of treatment) for which a SF of 0.2 is achieved.
# [4] = murine studies, previously published; cited from earlier work
# HUVEC [5] = assay: Endothelial cell tubule formation assay on MATRIGEL; assay type: cell-based, human; details: 30 μM plus 3 Gy, vs either treatment alone
# Procedure: Endothelial cell tubule formation assay. HUVEC of passage 3-6 were grown to 70-80% confluency. Cells were then washed with 1×PBS and suspended by trypsinization. Cells were counted and adjusted to 2.5-5×10^4 cells/ml in media. 75 μl MATRIGEL™ (BD Biosciences) were plated into each well of a 96 well plate and allowed to polymerize at 37° C. Cell suspensions (200 μl; […]) were added to each well. After thirty minutes, DMSO control or LFM-A13 was added. Thirty minutes later, dishes were treated with sham or 3 Gy and were then incubated until tubules had formed in control plates (4-6 hours). Digital photographs were taken of individual wells and tubules were counted by an observer blinded to the treatment conditions. The mean and standard error were calculated (n=3).
# LLC hind limb tumors = assay: Tumor growth delay; assay type: in vivo, C57BL/6 mice; details: 5 consecutive days
# Procedure: Tumor growth delay. LLC's were subcutaneously injected into the hind limb of C57/BL6 mice to form xenografts. When tumors grew to 200 mm^3, (approximately 7 days) the mice were treated with five consecutive daily treatments of i.p. LFM-A13 followed 45 minutes later by 3 Gy irradiation using an 80 kVp superficial x-ray generator. Serial measurements of tumor dimensions were taken by caliper and tumor volume was calculated using the modified ellipsoid formula (length×width×depth)/2. The mean and standard error were plotted using Microsoft Excel software.
# Bmx [6] = biological target: T1, Bmx (Homo sapiens, UniProt P51813); details: HUVEC, dose of 25 μM; cited from earlier work
# T1 construct: host or cells: HUVEC
# T1 sequence (P51813 1-675): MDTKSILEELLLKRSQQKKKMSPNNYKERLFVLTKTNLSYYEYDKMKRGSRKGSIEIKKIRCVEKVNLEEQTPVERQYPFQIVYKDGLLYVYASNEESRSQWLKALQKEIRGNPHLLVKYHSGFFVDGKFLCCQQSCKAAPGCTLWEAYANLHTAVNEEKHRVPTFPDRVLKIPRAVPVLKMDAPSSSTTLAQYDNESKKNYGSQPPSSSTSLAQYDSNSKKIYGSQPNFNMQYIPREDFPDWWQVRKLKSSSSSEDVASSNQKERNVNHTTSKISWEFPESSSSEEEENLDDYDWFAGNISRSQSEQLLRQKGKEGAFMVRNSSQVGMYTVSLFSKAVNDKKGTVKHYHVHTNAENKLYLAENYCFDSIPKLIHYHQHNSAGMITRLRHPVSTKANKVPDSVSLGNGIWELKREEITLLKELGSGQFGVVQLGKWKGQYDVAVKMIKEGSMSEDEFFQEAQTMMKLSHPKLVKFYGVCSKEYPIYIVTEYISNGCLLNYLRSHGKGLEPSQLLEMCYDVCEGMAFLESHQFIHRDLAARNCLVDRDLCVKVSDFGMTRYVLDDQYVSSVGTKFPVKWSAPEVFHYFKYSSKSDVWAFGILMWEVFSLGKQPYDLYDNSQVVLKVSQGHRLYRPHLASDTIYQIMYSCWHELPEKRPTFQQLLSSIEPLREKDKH
# HUVEC [7] = assay: Apoptosis assay, Annexin V/propidium iodide flow cytometry; assay type: cell-based, human; details: 24 hours
# Procedure: Apoptosis assays. HUVEC were grown to 70-80% confluency prior to treatment with LFM-A13 or DMSO control. Cells were then irradiated with 0 or 3 Gy and harvested 24 hours after irradiation. Annexin V-FITC Apoptosis Detection kit (BD PharMingen, San Diego, Calif., United States of America) was used to stain cells (propidium iodide (50 ng) and annexin V-FITC (5 ng) were added to 10^5 cells) for flow cytometry according to manufacturer's protocol. For each treatment, the percent of cells undergoing apoptosis (±SE) was calculated. Camptothecin (5 μmol/L) treatment for 6 hours served as positive control
# HUVEC [8] = assay: Endothelial closure assay (migration across a gap); assay type: cell-based, human
# Procedure: Endothelial closure assay. HUVEC of passage 3-6 were grown on glass slides and were subjected to gap formation as described previously (Cuneo et al., 2007). Cells were treated with LFM-A13 or DMSO control prior to 0 or 3 Gy and incubated for the indicated times. Photographs of cell defect and surrounding cells were taken and relative cell density within the defect was calculated as follows: (number of cells/original cell defect area)/(number of cells/surrounding area).
# LLC tumor vasculature = assay: Tumor vascular window model; assay type: in vivo, C57BL/6 mice
# Procedure: Tumor vascular window model. The tumor vascular window model technique is described in Edwards et al., 2002. Briefly, three mice for each group had tumors grown within a vascular window such that tumor vasculature could be visualized within window frames containing a coordinate system for serial photography. Animals were treated with LFM-A13 by i.p. injection 60 minutes prior to 2 Gy irradiation using an 80 kVp superficial X-ray machine (Pantak X-ray Generator; East Haven, Conn., United States of America). Serial color photographs were taken to document blood vessel appearance on days 0-7. Photographs were scanned and processed using ADOBE® PHOTOSHOP® software (Adobe Systems Inc., San Jose, Calif., United States of America) to mark the center of vessels, verified by an observer blinded to treatment groups. Vascular length density (VLD) was quantified for each microscopic field using IMAGE-PRO® Plus v. 5.1 software (Media Cybernetics, Inc. Silver Spring, Md., United States of America). The mean and standard error of VLD in each treatment group were calculated and plotted. All animals used were cared for according to Vanderbilt University's Institutional Animal Care and Use Committees guidelines.
# HUVEC [9] = assay: Apoptosis assay, DAPI staining of nuclei; assay type: cell-based, human; details: 30 μM plus 3 or 6 Gy, 24 hours
# Procedure: HUVEC were also assayed for apoptosis using a 4′,6-Diamidino-2-phenylindole (DAPI) staining of the nuclei to identify cells undergoing morphological changes. […] Cells were returned to the incubator for an additional 24 hr prior to DAPI staining. Multiple high powered fields (at least 7) were examined by an observer who was blinded to the experimental conditions for each of the cultures. […] The mean and standard error were calculated for each treatment group.
# [10] = system: Lewis Lung Carcinoma (LLC) cell line; assay: Clonogenic survival assay in LLC; assay type: cell-based; details: prior to 0, 2, 4, or 6 Gy
# Procedure: Clonogenic survival. LLC's or passage 3-6 HUVECs were grown to 70-80% confluency. Cells were washed with 1×PBS, trypsin suspended, and were counted and adjusted to specific densities for each condition. The cells were plated on tissue culture plates and allowed to attach for 4 hours. LFM-A13 or DMSO was added at a 1:1000 dilution followed 60 min later by 0, 2, 4 or 6 Gy. Media was changed after irradiation. 10-14 days after irradiation, the plates were fixed with 70% ethanol and stained with 1% methylene blue. Colonies were then counted using a dissection microscopy with positive colonies containing at least 50 cells. Surviving fraction (SF) was calculated by the equation (number of colonies formed/number of cells plated)/(number of colonies for sham irradiated group/number of cells plated). Dose enhancing ratios were calculated by dividing the dose (Gy) for radiation alone by the dose for radiation plus treatment (normalized for plating efficiency of treatment) for which a SF of 0.2 is achieved.
# Bmx [11] = biological target: T1, Bmx; assay type: cell-based; details: 30 μM pre-incubation, 3 Gy
# Procedure: Immunoprecipitation and in vitro kinase assay. HUVECs of passage 3-6 were grown to 70-80% confluency and then serum starved for 5 hours. The cells were then treated with sham or 3 Gy irradiation. After treatment, the cells were incubated at 37° C. with 5% CO2 for the indicated times. For inhibition studies, inhibitor was added at a 1:1000 dilution 60 minutes prior to irradiation. Following incubation, the tissue culture dishes were placed on ice and washed twice with ice cold 1× Phosphate-buffered Saline (PBS) followed by lysis using 400 μM-PER containing protease and phosphatase inhibitors (Sigma-Aldrich Co.) for 5 minutes. The cells were scraped and transferred to Eppendorf tubes, vortexed for 20 seconds, and incubated on ice for 30 minutes. After clearing the lysate by centrifugation at 15,000 g for 15 minutes at 4° C., the supernatant was quantified for protein concentration using the bicinchoninic acid (BCA) method prior to immunoprecipitation. Immunoprecipitation was performed using the CATCH AND RELEASE® v 2.0 system (Upstate Group, LLC, Charlottesville, Va., United States of America) according to manufacturer's protocol with some modification.
# Briefly, spin columns containing binding resin were prepared by washing twice with 1× wash buffer (2000 g/30 seconds). […] This was added to the capped spin column which was rotated end-over-end overnight at 4° C. […]
compound,measurement,setting,value
CC1=C(O)C(=O)[C@@H]2O[C@@H]2C1=O [terreic acid],effectiveness relative to LFM-A13,HUVEC [1],at least as effective as LFM-A13
"C/C(O)=C(\C#N)C(=O)Nc1cc(Br)ccc1Br [LFM-A13, (2Z)-2-cyano-N-(2,5-dibromophenyl)-3-hydroxy-2-butenamide]","blood vessel formation (CD34 staining), combination with 3 Gy",[2],most effective at attenuating blood vessel formation
same,"radiosensitization (surviving fraction, survival curve shift)","HUVEC [3]; 45 minutes prior to 0, 2, 4, or 6 Gy, colonies over 10 days",radiosensitized HUVEC
same,dose enhancing ratio (DER),HUVEC [3]; dose ratio at SF of 0.2,1.47
same,tolerability,[4],well-tolerated
same,"number of tubules formed, combination with 3 Gy",HUVEC [5],significant reduction (p<0.005) in tubules formed
same,"tumor growth delay, combination with 3 Gy",LLC hind limb tumors; 50 mg/kg i.p. 45 minutes prior to 3 Gy,statistically significant enhancement of growth delay; also recorded: more than additive
same,"tumor growth delay, drug alone","LLC hind limb tumors; 50 mg/kg i.p., sham irradiation",small growth delay
same,VEGF induced signaling through Bmx inhibition,Bmx [6],block VEGF induced signaling
same,"apoptosis, combination with 3 Gy",HUVEC [7]; 30 μM plus 3 Gy,statistically significant (p<0.001 vs. LFM-A13 or 3 Gy alone) increase in apoptosis
same,"early and late apoptosis, drug alone","HUVEC [7]; 30 μM, sham irradiation",not capable of shifting cells into either early (Q4-1) or late (Q2-1) apoptosis
same,"endothelial cell closure (relative cell density in gap), drug alone","HUVEC [8]; 30 μM alone, 12 hours and 24 hours, vs vehicle control",minimal effect on attenuating endothelial cell closure
same,"endothelial cell closure, combination with 3 Gy","HUVEC [8]; 30 μM for 45 minutes prior to 3 Gy, 12 and 24 hours",greater than additive effect
same,"tumor vascular window blood vessels, drug alone",LLC tumor vasculature; 50 mg/kg i.p. alone,minimally inhibited
same,"tumor blood vessels (mean vascular length density), combination with 2 Gy",LLC tumor vasculature; single 50 mg/kg i.p. prior to 2 Gy,dramatic reduction in tumor blood vessels
same,"percent of apoptotic cells, combination with irradiation",HUVEC [9],enhancement of apoptosis
same,clonogenic survival compared to DMSO control,[10],no difference in clonogenic survival
same,radiation-induced Bmx activation (autophosphorylation),Bmx [11],attenuated the activation of Bmx
